Five compounds from ChEMBL document CHEMBL1145318, “Amide-substituted farnesylcysteine analogs as inhibitors of human isoprenylcysteine carboxyl methyltransferase” (Bioorg Med Chem Lett, 2006) can be followed below.

Test [1] deals with T1, Protein-S-isoprenylcysteine O-methyltransferase (Homo sapiens, UniProt O60725). Briefly: Inhibition of human Icmt by methanol vapour diffusion assay.
The target of test [2] is T1, Protein-S-isoprenylcysteine O-methyltransferase. Briefly: Inhibition of human Icmt in Saccharomyces cerevisiae cell membrane relative to control by SPA; values are per cent of control. Also noted: concentration or dose not given beside the values.

What is called IC50 is the concentration needed to halve the response being measured. As usually defined, the residual activity is the share of the control activity or signal that is left under treatment.

T1 sequence (O60725 whole entry, the tested form may be a part): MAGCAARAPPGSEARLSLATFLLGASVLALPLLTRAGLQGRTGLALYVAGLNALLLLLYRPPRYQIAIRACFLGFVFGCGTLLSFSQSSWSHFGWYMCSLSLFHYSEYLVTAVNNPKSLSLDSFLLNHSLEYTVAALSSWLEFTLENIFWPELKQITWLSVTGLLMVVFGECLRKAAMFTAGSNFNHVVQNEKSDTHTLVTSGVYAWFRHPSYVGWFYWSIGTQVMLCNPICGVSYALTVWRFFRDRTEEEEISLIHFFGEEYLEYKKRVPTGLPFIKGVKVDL

Turning to `COc1ccc(-c2ccc(C(=O)N[C@@H](CSC/C=C(\C)CC/C=C(\C)CCC=C(C)C)C(=O)O)o2)cc1`, inhibition in test [1] was half-maximal at 17.4 µM (IC50). This compound yielded a residual activity in test [2] of 35.1%.

For `CC(C)=CCC/C(C)=C/CC/C(C)=C/CSC[C@H](NC(=O)c1cc2ccccc2s1)C(=O)O`, the 50% inhibitory concentration (IC50) in test [1] came to 20.3 µM. In test [2], this compound came in with a residual activity of 28%.

`CC(C)=CCC/C(C)=C/CC/C(C)=C/CSC[C@H](NC(=O)c1cc(Cl)cc(Cl)c1)C(=O)O` gave an IC50 in test [1] of 23 µM. Moreover, the residual activity in test [2] was 33.5%.

For `CC(C)=CCC/C(C)=C/CC/C(C)=C/CSC[C@H](NC(=O)c1cc([N+](=O)[O-])cc([N+](=O)[O-])c1)C(=O)O`, half-maximal inhibition in test [1] (IC50) was put at 14.3 µM. Further, the residual activity in test [2] was determined as 37.1%.

In test [1], `CC(C)=CCC/C(C)=C/CC/C(C)=C/CSC[C@H](NC(=O)c1ccc([N+](=O)[O-])cc1)C(=O)O` yielded an IC50 of 16.6 µM. The residual activity in test [2] was determined as 50.1%.
